The record followed here is patent US9284301B2, “Soluble guanylate cyclase activators” (Merck Sharp & Dohme Corp., priority 2010, dated 2016).

In the data set the target is T1, sGC α1/β1 heterodimer (Homo sapiens, UniProt Q02108+Q02153).
T1 construct: expressed in transfected cells; host or cells: CHO-K1 (clone #7, CHO-K1/sGC)
T1 sequence (Q02108 1-690): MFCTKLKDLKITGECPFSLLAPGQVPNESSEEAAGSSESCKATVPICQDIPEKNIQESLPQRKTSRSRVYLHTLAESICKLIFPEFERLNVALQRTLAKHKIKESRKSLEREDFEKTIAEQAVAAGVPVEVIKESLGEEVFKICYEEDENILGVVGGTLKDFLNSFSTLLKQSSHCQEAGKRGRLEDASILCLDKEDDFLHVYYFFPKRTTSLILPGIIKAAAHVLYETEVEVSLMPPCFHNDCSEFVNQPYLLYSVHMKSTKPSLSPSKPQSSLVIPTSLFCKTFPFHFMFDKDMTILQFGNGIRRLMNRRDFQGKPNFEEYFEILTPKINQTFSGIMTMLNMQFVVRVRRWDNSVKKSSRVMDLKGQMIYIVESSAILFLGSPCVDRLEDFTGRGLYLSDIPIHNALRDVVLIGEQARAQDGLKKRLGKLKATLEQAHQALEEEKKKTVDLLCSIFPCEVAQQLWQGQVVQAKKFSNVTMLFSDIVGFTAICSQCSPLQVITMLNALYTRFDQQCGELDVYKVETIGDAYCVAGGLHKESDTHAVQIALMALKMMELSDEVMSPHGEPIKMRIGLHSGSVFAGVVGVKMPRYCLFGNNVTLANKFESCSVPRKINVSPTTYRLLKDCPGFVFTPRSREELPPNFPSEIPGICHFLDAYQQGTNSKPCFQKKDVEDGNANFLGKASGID
T1 sequence (Q02153 1-619): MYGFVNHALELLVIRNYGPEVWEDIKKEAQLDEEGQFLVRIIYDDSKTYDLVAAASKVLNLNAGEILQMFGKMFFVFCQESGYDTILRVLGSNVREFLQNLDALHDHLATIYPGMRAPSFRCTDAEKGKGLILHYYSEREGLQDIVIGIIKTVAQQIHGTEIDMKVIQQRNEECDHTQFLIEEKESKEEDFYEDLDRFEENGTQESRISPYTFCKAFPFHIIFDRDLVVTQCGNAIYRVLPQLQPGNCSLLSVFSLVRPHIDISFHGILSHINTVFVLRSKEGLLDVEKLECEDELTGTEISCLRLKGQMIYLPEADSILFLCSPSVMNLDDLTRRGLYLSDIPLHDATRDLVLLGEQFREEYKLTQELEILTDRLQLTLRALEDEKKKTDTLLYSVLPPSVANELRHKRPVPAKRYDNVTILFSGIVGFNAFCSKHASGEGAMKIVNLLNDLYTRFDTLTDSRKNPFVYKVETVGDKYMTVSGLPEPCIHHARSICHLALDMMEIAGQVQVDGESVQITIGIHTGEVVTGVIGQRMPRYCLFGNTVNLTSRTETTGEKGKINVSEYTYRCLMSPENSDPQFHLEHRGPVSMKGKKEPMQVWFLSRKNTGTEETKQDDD
Nature of the data set: Cell-based sGC Functional Assay (CASA Assay): cGMP generation in CHO-K1/sGC cells, HTRF readout. As to conditions: without ODQ incubation; for EC50: read-out: IP (inflection point). The text has this:
Cell-based sGC Functional Assay (CASA Assay) Rationale: sGC is a heme-containing enzyme that converts GTP to secondary messenger cGMP. Increases in cGMP levels affect several physiological processes including vasorelaxation through multiple downstream pathways. […] Heme-dependent activators (HDAs) preferentially activate sGC containing a ferrous Deme group. To determine the effect of sGC activators on enzyme activity, the CASA assay was developed to monitor the generation of cGMP in a cell line that stably expresses the heterodimeric sGC protein. Methods: A CHO-K1 cell line stably expressing the sGC α1/β1 heterodimer was generated using a standard transfection protocol. CHO-K1 cells were transfected with plasmids pIREShyghsGCα1 and pIRESneo-hsGCβ1 simultaneously using FUGENE reagent. Clones that stably express both subunits were selected with hygromycin and neomycin for ˜2 weeks. Clone #7 was chosen for the assay and was designated CHO-K1/sGC. CHO-K1/sGC cells were maintained in F-K12 medium containing 10% heat-inactivated Fetal Bovine Serum (FBS), 100 μg/mL penicillin/streptomycin, 0.5 mg/mL hygromycin and 0.25 mg/mL G418. On the day of the assay, cells were harvested in EBSS Assay Buffer (EAB) containing 5 mM MgCl2, 10 mM HEPES (4-(2-hydroxyethyl)piperazine-1-ethanesulfonic acid) and 0.05% BSA (bovine serum albumin) and cell density was adjusted to 2×10^6/mL with EAB. IBMX (3-isobutyl-1-methylxanthin, 0.5 mM) was added to inhibit degradation of cGMP. Compounds were diluted from DMSO stock solutions and added to the assay at a final DMSO concentration of 1%. Cells were incubated with compounds of the invention, in the presence and/or absence of 10 μM of 1H-(1,2,4)oxadiazolo(4,3-a) quinoxalin-1-one (ODQ), for 1 hr at 37° C. At the end of the incubation period, the reaction was terminated and the cells were lysed. The level of intracellular cGMP was determined using an HTRF-based assay kit (from CisBio, 62GM2PEC), which detects the displacement of a fluorescence labeled cGMP from its specific antibody. HTRF is a TR-FRET based technology that uses the principles of TRF and FRET. The amount of cGMP was plotted against compound concentration in PRISM software and the inflection point (IP) and maximum fold induction over DMSO control were derived from the plot.
On the technique in general: In TR-FRET formats the signal depends on donor and acceptor labels being close together.

As for `Cc1c(-c2cnc(-c3nc(Cc4c(F)ccc(F)c4F)n4ncccc34)nc2N)c(C(F)(F)F)nn1C` [Example 3, 5-[1,5-dimethyl-3-(trifluoromethyl)-1H-pyrazol-4-yl]-2-[7-(2,3,6-trifluorobenzyl)imidazo[1,5-b]pyridazin-5-yl]pyrimidin-4-amine], the “Maximum fold induction over DMSO control” value was found to be 71 fold and the EC50 turned out to be 499 nM.
With `Nc1nc(-n2nc(CCC3CCCC3)c3ccccc32)nc(N)c1-c1cccnc1` [Example 208, 2-[3-(2-cyclopentylethyl)-1H-indazol-1-yl]-5-pyridin-3-ylpyrimidine-4,6-diamine], the “Maximum fold induction over DMSO control” value stood at 244 fold and the EC50 stood at 540 nM.
As for `Nc1nc(-c2nc(Cc3c(F)ccc(F)c3F)n3ncccc23)ncc1-c1cccc2ncccc12` [Example 7, 5-quinolin-5-yl-2-[7-(2,3,6-trifluorobenzyl)imidazo[1,5-b]pyridazin-5-yl]pyrimidin-4-amine], the “Maximum fold induction over DMSO control” value was determined as 129 fold and the EC50 came out at 296 nM.
In the same order, the values of `Cc1cc(-c2cnc(-c3nc(Cc4c(F)ccc(F)c4F)n4ncccc34)nc2N)ccn1` [Example 4, 5-(2-methylpyridin-4-yl)-2-[7-(2,3,6-trifluorobenzyl)imidazo[1,5-b]pyridazin-5-yl]pyrimidin-4-amine] are 55 fold and 178 nM.
Regarding `Nc1nc(-n2nc(Cc3c(F)ccc(F)c3F)c3cc(Cl)ccc32)nc(N)c1NC(=O)C1CC1` [Example 178, N-{4,6-diamino-2-[5-chloro-3-(2,3,6-trifluorobenzyl)-1H-indazol-1-yl]pyrimidin-5-yl}cyclopropanecarboxamide], the “Maximum fold induction over DMSO control” value is recorded as 74 fold and the EC50 is 524 nM.
Taken in the same sequence, the figures for `Nc1nc(-c2nc(Cc3c(F)ccc(F)c3F)n3cc(F)ccc23)ncc1-c1cccnc1` [Example 56, 2-[6-fluoro-3-(2,3,6-trifluorobenzyl)imidazo[1,5-a]pyridin-1-yl]-5-pyridin-3-ylpyrimidin-4-amine] were 322 fold and 397 nM.
In the same order, the values of `Cn1cc(-c2c(N)nc(-n3nc(Cc4c(F)ccc(F)c4F)c4cc(Cl)ccc43)nc2N)cn1` [Example 83, 2-[5-chloro-3-(2,3,6-trifluorobenzyl)-1H-indazol-1-yl]-5-(1-methyl-1H-pyrazol-4-yl)pyrimidine-4,6-diamine] are 127 fold and 34 nM.
In the same order, the values of `Nc1nc(-c2nc(Cc3c(F)ccc(F)c3F)n3cc(F)ccc23)ncc1-c1ccnc2ccc(F)cc12` [Example 73, 5-(6-fluoroquinolin-4-yl)-2-[6-fluoro-3-(2,3,6-trifluoro-benzyl)imidazo[1,5-a]pyridin-1-yl]pyrimidin-4-amine] are 234 fold and 170 nM.
